This is an account of results in patent US10576086B2, “Triazine derivatives as interferon-gamma inhibitors” (University of Greenwich, priority 2015, dated 2020).

Read-outs that look alike come from different tables or passages of the source.

The test system of the assay is IFN-γ production in human peripheral blood mononuclear cells (PBMCs). The assay is described as follows: Experiment 2: IFN-γ production by PHA-stimulated human PBMCs, ELISA. In kind it is cell-based. As to conditions: for [IFN-γ]: PHA 5 μg/ml; for inhibition of IFN-γ production in PBMCs (in words): Experiment 2, human PBMCs; for IC50: human PBMCs, PHA-stimulated, read-out: IC50 (concentration to inhibit IFN-γ production by 50%). As for the experimental part: A similar set of tests were carried out, in which three compounds known as CEN-079(3,5-diamino-6-[2-(3,4,5-trichlorothienyl)]-1,2,4-triazine), CEN-092(3,5-diamino-6-(3,5-bistrifluoromethylphenyl)-1,2,4-triazine) and CEN-216(3,5-diamino-6-(2,3-dichlorophenyl)-2,3(2,5)-dihydro-3(5)-imino-2-(2,2,2-trichloroethyl)-1,2,4-triazine) were compared with lamotrigine. CEN-079, CEN-092 and CEN-216 are within the scope of Formulae 1, 2 and 3.
50 ml of blood from three healthy adult donors was collected by venepuncture in heparinised tubes. The blood samples where centrifuged at 3000 rpm for 15 minutes. The supernatant plasma was collected in a centrifuge tube, and centrifuged at 3000 rpm for a further 10 minutes. The supernatant was then collected in a plain tube, and stored at −70° C. for future use.
The cells from the first centrifuged heparinised tube were diluted 1:1 in RPMI-1640, and mixed by multiple inversions. The cell mixture was then slowly layered, using a sterile plastic 3 ml pipette, along a tube wall containing lymphoprep (Nycomed) at a ratio of 2:1 cells/RPMI-1640:Lymphoprep in a 25 ml universal tube. The mixture was centrifuged at 2400 rpm for 30 minutes, and left to stand for 20 minutes. PBMCs were slowly removed from the interface using a sterile plastic pipette, and collected in a 15 ml centrifuge tube.
The cells were washed twice by diluting in RPMI-1640 with 2 mM L-glutamine, 100 U/ml penicillin and 100 μg/ml streptomycin at a ratio of 1:1. The mixture was centrifuged at 3000 rpm for 15 minutes, and the supernatant decanted. PBMCs were then diluted in RPMI-1640 containing 2 mM L-glutamine, 100 U/ml penicillin and 100 μg streptomycin, to make up a volume of 6 ml for subjects 1 and 2, and 9 ml for subject 3.
Cells were counted using an Improved Neubauer haemocytometer (Hawksley, UK) on a light microscope. 10 μl of cell suspension was loaded onto the haemocytometer using a sterile plastic pipette. Cells were counted in five out of 25 1 mm squares, from which the total cell count was calculated.
5 μg/ml PHA was used as a T cell activating agent for the production of IFN-γ. The PBMCs were treated with the four test compounds (lamotrigine, CEN-079, CEN-092, CEN-216) at concentrations of 10 μM, 30 μM and 300 μM to assess their effects on IFN-γ production by the stimulated T cells.
The tests were carried out as for Experiment 1, in which 2×10^6 PBMC/ml, 25 μl of 5% autologous plasma, and 2.63 μl of 5 μg/ml PHA were used. Test compound at each concentration was then added, except for one control case.
10 μM solutions were obtained by adding 1.05 μl of a 5 mM solution of the compounds to the above PBMC-containing solution. 30 μM solutions were obtained by adding 3.15 μl of the 5 mM solution of the compounds. 300 μM solutions were obtained by adding […] solutions of the compounds.
The tubes were covered, gently shaken to mix the contents, and incubated for 24 hours at 37° C. The tubes were then centrifuged at 2500 rpm for 10 minutes. The supernatant was collected in a 3 ml plastic pipette, and aliquots were stored at −70° C. before being analysed.
The test was performed according to the supplier's instructions. Donor samples were diluted 1:1 in phosphate buffered […] (PBS) and assayed simultaneously with IFN-γ standard samples, in duplicate. The standard curve ranged from 15.6 pg/ml to 1000 pg/ml.
A 96-well multiwell microplate (high binding Costar) was prepared, by diluting a capture antibody (720 μg/ml of mouse anti-human IFN-γ) in PBS to a working concentration of 4.0 μg/ml. 100 μl was immediately coated on each well, and left overnight at room temperature. The wells were washed three times in wash buffer, using microplate autowasher (LT-3000, LabTech International Ltd). The remainder of the wash buffer in the wells was removed by blotting on to clean paper towels. The plate was blocked by adding 300 μl Block buffer (1% BSA in PBS) to each well and incubated at room temperature for 1 hour. […]
Background: In an ELISA, binding on a coated surface is turned into a signal by an enzyme label.

For the molecule `Nc1nnc(-c2sc(Cl)c(Cl)c2Cl)c(N)n1` [CEN-079, 3,5-diamino-6-[2-(3,4,5-trichlorothienyl)]-1,2,4-triazine], the “inhibition of IFN-γ production in PBMCs (in words)” value (“inhibition of IFN-γ production” below) is given as “significantly more effective inhibitors compared to lamotrigine” and the IC50 was 6 µM. Where the note is “10 μM, Subject 1, 24 h”, the “[IFN-γ] vs control” value came to 22.1% and the “[IFN-γ]” value was 154.5 pg/mL. For the same molecule, under “10 μM, Subject 2, 24 h”, the “[IFN-γ] vs control” value stood at 36.9% and the “[IFN-γ]” value worked out at 757.5 pg/mL. For the same molecule, where the note is “10 μM, Subject 3, 24 h”, the “[IFN-γ] vs control” value stood at 28.7% and the “[IFN-γ]” value was 611.5 pg/mL. For the same molecule, under “30 μM, Subject 1, 24 h”, the “[IFN-γ] vs control” value was found to be 7.60% and the “[IFN-γ]” value was 53 pg/mL. Further, where the note is “30 μM, Subject 2, 24 h”, the “[IFN-γ] vs control” value was 1.80% and the “[IFN-γ]” value was 178.5 pg/mL. Moreover, for the setting “30 μM, Subject 3, 24 h”, the “[IFN-γ] vs control” value is reported as 2.0% and the “[IFN-γ]” value turned out to be 41.5 pg/mL. In addition, for the setting “300 μM, Subject 1, 24 h”, the “[IFN-γ] vs control” value is listed as 0.0% and the “[IFN-γ]” value worked out at 0.00 pg/mL. Where the note is “300 μM, Subject 2, 24 h”, the “[IFN-γ] vs control” value is on record as 0.0% and the “[IFN-γ]” value turned out to be 0.0 pg/mL. For the same molecule, where the note is “300 μM, Subject 3, 24 h”, the “[IFN-γ] vs control” value was found to be 0.0% and the “[IFN-γ]” value stood at 0.0 pg/mL.

In the case of `Nc1nnc(-c2cc(C(F)(F)F)cc(C(F)(F)F)c2)c(N)n1` [CEN-092, 3,5-diamino-6-(3,5-bistrifluoromethylphenyl)-1,2,4-triazine], the “inhibition of IFN-γ production” value is “significantly more effective inhibitors compared to lamotrigine”. Besides, where the note is “10 μM, Subject 1, 24 h”, the “[IFN-γ] vs control” value is recorded as 16.1% and the “[IFN-γ]” value is 112.5 pg/mL. Further, where the note is “10 μM, Subject 2, 24 h”, the “[IFN-γ] vs control” value is reported as 36.0% and the “[IFN-γ]” value is 728.5 pg/mL. For the same molecule, for the setting “10 μM, Subject 3, 24 h”, the “[IFN-γ] vs control” value turned out to be 19.9% and the “[IFN-γ]” value worked out at 423.5 pg/mL. Moreover, where the note is “30 μM, Subject 1, 24 h”, the “[IFN-γ] vs control” value is on record as 7.4% and the “[IFN-γ]” value came to 52.0 pg/mL. Besides, under “30 μM, Subject 2, 24 h”, the “[IFN-γ] vs control” value worked out at 24.6% and the “[IFN-γ]” value turned out to be 499.0 pg/mL. In addition, for the setting “30 μM, Subject 3, 24 h”, the “[IFN-γ] vs control” value came out at 4.3% and the “[IFN-γ]” value stood at 91.5 pg/mL. Under “300 μM, Subject 1, 24 h”, the “[IFN-γ] vs control” value was determined as 0.0% and the “[IFN-γ]” value turned out to be 0.00 pg/mL. Besides, under “300 μM, Subject 2, 24 h”, the “[IFN-γ] vs control” value is 0.0% and the “[IFN-γ]” value was 0.0 pg/mL. For the setting “300 μM, Subject 3, 24 h”, the “[IFN-γ] vs control” value turned out to be 6.9% and the “[IFN-γ]” value came out at 146.0 pg/mL. Besides, the IC50 (PBMC) was 3 µM.

`N=c1nc(N)c(-c2cccc(Cl)c2Cl)nn1CC(Cl)(Cl)Cl` [CEN-216, 5(3)-Amino-6-(2,3-dichlorophenyl)-2,3(2,5)-dihydro-3(5)-imino-2-(2,2,2-trichloroethyl)-1,2,4-triazine]: the “inhibition of IFN-γ production” value was “significantly more effective inhibitors compared to lamotrigine”. Further, for the setting “10 μM, Subject 1, 24 h”, the “[IFN-γ] vs control” value is on record as 0.0% and the “[IFN-γ]” value worked out at 0.00 pg/mL. For the setting “10 μM, Subject 2, 24 h”, the “[IFN-γ] vs control” value is listed as 9.2% and the “[IFN-γ]” value is 187.0 pg/mL. Under “10 μM, Subject 3, 24 h”, the “[IFN-γ] vs control” value worked out at 3.9% and the “[IFN-γ]” value was 82.0 pg/mL. Further, where the note is “30 μM, Subject 1, 24 h”, the “[IFN-γ] vs control” value worked out at 0.0% and the “[IFN-γ]” value was 0.00 pg/mL. Moreover, where the note is “30 μM, Subject 2, 24 h”, the “[IFN-γ] vs control” value was 2.9% and the “[IFN-γ]” value is 59.0 pg/mL. Besides, where the note is “30 μM, Subject 3, 24 h”, the “[IFN-γ] vs control” value stood at 5.7% and the “[IFN-γ]” value is 122.0 pg/mL. For the same molecule, under “300 μM, Subject 1, 24 h”, the “[IFN-γ] vs control” value stood at 0.0% and the “[IFN-γ]” value turned out to be 0.00 pg/mL. Under “300 μM, Subject 2, 24 h”, the “[IFN-γ] vs control” value is reported as 0.0% and the “[IFN-γ]” value is 0.0 pg/mL. For the same molecule, under “300 μM, Subject 3, 24 h”, the “[IFN-γ] vs control” value was found to be 0.0% and the “[IFN-γ]” value amounted to 0.0 pg/mL.
